# Reference: patent US20140351961A1, “COMPOSITIONS AND METHODS FOR TREATMENT OF METASTATIC CANCER” (priority 2011, published 2014)
# Residues, ends and D or L forms follow the SMILES beside them. *: point of attachment. Cbz = O=C(OCc1ccccc1)*
# How the values were obtained:
# [1] = system: IFN-γ; assay: In vitro cross-presentation assay (IFN-γ release by B3Z cells); assay type: cell-based, mouse; details: Hsp25-siRNA- and control-siRNA-treated BMDC; 10 μM
# [2] = system: AsPC1 cells; assay: MTS cytotoxicity assay, AsPC1 cells pre-treated with control or CH101; assay type: cell-based; details: Homo sapiens, AsPC1, highly metastatic pancreatic cell, 48 h control or CH101 pre-treatment, then 72 h drug
# Experimental: FIG. 8A-B. Combining CH101 with oxaliplatm synergistieally functions to reduce the IC50 in the highly agreesive, highly metastatic pancreatic cell, AsPC1, AsPC1 cells (10^6) were plated in 96-well plates and either pre-treated with control (top panel) or CH101 (bottom panel) for 48 hrs in a 37 degree C incubator. AsPC1 cells were then treated with various doses of oxaliplatm (A) or irlootecan (B) and further incubated for 72 h. Cytotoxicity was measured using the classical MTS assay.
# [3] = system: Panc-1 cells; assay: MTS cytotoxicity assay, Panc-1 cells pre-treated with control or CH101; assay type: cell-based; details: Panc-1, weakly metastatic pancreatic cell, 48 h control or CH101 pre-treatment, then 72 h drug
# Experimental: FIG. 7. Combining CH101 with oxaliplatin synergistically functions to reduce the IC50 in the weakly metastatic pancreatic cell Panc-1. Panc-1 cells (10^6) were plated in 96-well plates and either pre-treated with control (top panel) or CH101 (bottom panel) for 48 h in a 37 degree C incubator. Panc-1 cells were then treated with various doses of oxaliplatm and further incubated for 72 hours. Cytotoxicity was measured using the classical MTS assay.
# [4] = system: MDA-MB-231, AsPC1, MCF7, Panc-1; assay: CH101 against highly metastatic versus non- or weakly metastatic cancers; assay type: cell-based; details: MDA-MB-231 and AsPC1 versus MCF7 and Panc-1
molecule,measurement,setting,value
CC(C)C[C@@H](C=O)NC(=O)[C@H](CC(C)C)NC(=O)[C@H](CC(C)C)NC(=O)OCc1ccccc1 [MG-132] (Cbz-Leu-Leu-Leu-aldehyde),IFN-γ released by B3Z cells after proteasome inhibitor pre-treatment,[1],significantly reduced the concentration of released IFN-γ
CCc1c2c(nc3ccc(OC(=O)N4CCC(N5CCCCC5)CC4)cc13)-c1cc3c(c(=O)n1C2)COC(=O)[C@]3(O)CC [irinotecan],IC50,[2],36.8 µM
O=C1[O][Pt]2([NH][C@@H]3CCCC[C@H]3[NH]2)[O]C1=O [oxaliplatin],IC50,[3],23 µM
"CH101: cocktail of two dsRNA molecules, dsRNA SEQ ID NO:8/SEQ ID NO:9 and dsRNA SEQ ID NO:10/SEQ ID NO:11, blocking Hsp27 (nucleic acid, two duplexes cocktail, further chemistry not given here) chain 1: AAGGACGAGCATGGCTACATC chain 2: GATGTAGCCATGCTCGTCCTT chain 3: CACAGCCGCCTCTTCGATCAA chain 4: TTGATCGAAGAGGCGGCTGTG",relative effectiveness by metastatic type of cancer,[4],more effective against highly metastatic cancers
